Among the data in patent US9732063B2, “Kinase inhibitors” (RESPIVERT LIMITED, priority 2012, dated 2017) are IC50 values, retold here.

pIC50: −log10 of the molar value. A value given as a limit tells only on which side of the number the result lay.

One assay addresses c-Src (Homo sapiens (Human), UniProt P12931). Briefly: c-Src enzyme inhibition (Z-LYTE FRET). It is filed as biochemical. On the procedure:
(§1) The enzyme inhibitory activities of compounds disclosed herein are determined by FRET using synthetic peptides labelled with both donor and acceptor fluorophores (Z-LYTE, Invitrogen Ltd., Paisley, UK).
(§2) The relevant enzyme (3000 ng/mL or 2000 ng/mL respectively, 2.5 μL) is incubated with the test compound (either 4 μg/mL, 0.4 μg/mL, 0.04 μg/mL, or 0.004 μg/mL, 2.5 μL each) for 2 hr at RT. The FRET peptides (8 μM, 2.5 μL), and appropriate ATP solutions (2.5 μL, 800 μM for c-Src, and 60 μM ATP for Syk) are then added to the enzymes/compound mixtures and incubated for 1 hr. Development reagent (protease, 5 μL) is added for 1 hr prior to detection in a fluorescence microplate reader (Varioskan® Flash, ThermoFisher Scientific).
(§3) In all cases, the site-specific protease cleaves non-phosphorylated peptide only and eliminates the FRET signal. Phosphorylation levels of each reaction are calculated using the ratio of coumarin emission (donor) over fluorescein emission (acceptor), for which high ratios indicate high phosphorylation and low ratios indicate low phosphorylation levels.

Assay [1] has as its system PBMCs. In words: LPS-induced TNFα/IL-8 release in PBMC cells. It is filed as cell-based. The note with it: Homo sapiens, read-out: IC50 Values for Inhibition of Cytokine Release PBMCs IL-8. On the procedure: Peripheral blood mononuclear cells (PBMCs) from healthy subjects are separated from whole blood using a density gradient (Lymphoprep, Axis-Shield Healthcare). The PBMCs are seeded in 96 well plates and treated with compounds at the desired concentration for 2 hours before addition of 1 ng/mL LPS (Escherichia Coli O111:B4 from Sigma Aldrich) for 24 hours under normal tissue culture conditions (37° C., 5% CO2). The supernatant is harvested for determination of IL-8 and TN Fa concentrations by sandwich ELISA (Duo-set, R&D systems) and read on the fluorescence microplate reader (Varioskan® Flash, ThermoFisher Scientific).

The target of the next assay is Syk (Homo sapiens (Human), UniProt P43405). In words: Syk enzyme inhibition (Z-LYTE FRET). It is filed as biochemical. On the procedure: as §1, §2, §3
Assay [2] deals with PBMCs. Briefly: IL-2 and IFN gamma release in CD3/CD28 stimulated PBMC cells. In kind it is cell-based. Particulars: Homo sapiens. On the procedure:
PBMCs from healthy subjects are separated from whole blood using a density gradient (Lymphoprep, Axis-Shield Healthcare). Cells are added to a 96 well plate pre-coated with a mixture of CD3/CD38 monoclonal antibodies (0.3 μg/mL eBioscience and 3 μg/mL BD Pharmingen respectively). Compound at the desired concentration is then added to the wells and the plate left for 3 days under normal tissue culture conditions. Supernatants are harvested and IL-2 and IFN gamma release determined by Sandwich ELISA (Duo-set, R&D System). The IC50 is determined from the dose response curve.

For the next assay, the target named is p38 MAPKα (Homo sapiens (Human), UniProt Q16539). Briefly: p38 MAPKα enzyme inhibition (Z-LYTE FRET, Method 2). It is filed as biochemical. The procedure: as §1
The inhibitory activities of test compounds against the p38 MAPKα isoform (MAPK14: Invitrogen), are evaluated indirectly by determining the level of activation/phosphorylation of the down-stream molecule, MAPKAP-K2. The p38 MAPKα protein (80 ng/mL, 2.5 μL) is mixed with the test compound (2.5 μL of either 4 μg/mL, 0.4 μg/mL, 0.04 μg/mL or 0.004 μg/mL) for 2 hr at RT. […] The mixture is incubated for 1 hr at RT. Development reagent (protease, 5 μL) is added for 1 hr prior to detection in a fluorescence microplate reader (Varioskan® Flash, ThermoFisher Scientific).
as §3

The next assay has as its target GSK3α (Homo sapiens (Human), UniProt P49840). In words: GSK 3α enzyme inhibition (Z-LYTE FRET, Method 2). It is filed as biochemical. On the procedure: as §1
The inhibitory activities of compounds of the invention against the GSK 3α enzyme isoform (Invitrogen), are evaluated by determining the level of activation/phosphorylation of the target peptide. The GSK3-α protein (500 ng/mL, 2.5 μL) is mixed with the test compound (2.5 μL at either 4 μg/mL, 0.4 μg/mL, 0.04 μg/mL, or 0.004 μg/mL) for 2 hr at RT. The FRET peptide (8 μM, 2.5 μL), which is a phosphorylation target for GSK3α, and ATP (40 μM, 2.5 μL) are then added to the enzyme/compound mixture and the resulting mixture incubated for 1 hr. Development reagent (protease, 5 μL) is added for 1 hr prior to detection in a fluorescence microplate reader (Varioskan® Flash, ThermoFisher Scientific).
as §3

Setting [3] is: read-out: IC50 Values for Inhibition of Cytokine Release PBMCs IL-2.
Setting [4] is: read-out: IC50 Values for Inhibition of Cytokine Release PBMCs IFNγ.

Chain of c-Src (P12931 whole entry, looked up): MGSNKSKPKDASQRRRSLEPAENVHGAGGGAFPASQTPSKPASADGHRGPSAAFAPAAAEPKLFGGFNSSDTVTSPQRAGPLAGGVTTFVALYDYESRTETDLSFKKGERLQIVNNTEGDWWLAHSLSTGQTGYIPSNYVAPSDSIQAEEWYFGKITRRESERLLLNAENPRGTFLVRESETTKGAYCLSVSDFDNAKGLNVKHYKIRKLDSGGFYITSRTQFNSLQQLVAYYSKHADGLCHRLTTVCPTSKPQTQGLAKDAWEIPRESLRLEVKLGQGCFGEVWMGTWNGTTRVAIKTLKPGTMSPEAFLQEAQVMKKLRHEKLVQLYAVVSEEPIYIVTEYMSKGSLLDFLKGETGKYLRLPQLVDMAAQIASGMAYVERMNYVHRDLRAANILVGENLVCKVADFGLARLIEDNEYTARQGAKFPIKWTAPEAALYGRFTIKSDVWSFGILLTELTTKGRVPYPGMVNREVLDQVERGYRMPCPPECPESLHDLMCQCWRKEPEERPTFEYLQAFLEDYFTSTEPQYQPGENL
Chain of GSK3α (P49840 whole entry, canonical isoform): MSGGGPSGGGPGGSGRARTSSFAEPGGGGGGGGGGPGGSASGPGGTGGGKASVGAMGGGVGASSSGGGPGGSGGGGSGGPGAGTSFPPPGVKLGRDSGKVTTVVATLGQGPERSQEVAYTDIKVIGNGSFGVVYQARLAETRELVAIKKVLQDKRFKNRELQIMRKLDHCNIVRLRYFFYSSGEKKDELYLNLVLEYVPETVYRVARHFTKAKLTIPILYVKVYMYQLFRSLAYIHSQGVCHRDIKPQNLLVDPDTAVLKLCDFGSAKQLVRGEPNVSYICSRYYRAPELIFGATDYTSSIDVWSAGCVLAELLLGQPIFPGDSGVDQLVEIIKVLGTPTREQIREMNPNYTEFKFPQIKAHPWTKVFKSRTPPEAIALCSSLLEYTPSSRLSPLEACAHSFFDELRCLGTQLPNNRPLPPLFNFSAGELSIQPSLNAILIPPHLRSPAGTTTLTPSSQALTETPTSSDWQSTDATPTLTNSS
Chain of p38 MAPKα (Q16539 whole entry, canonical isoform): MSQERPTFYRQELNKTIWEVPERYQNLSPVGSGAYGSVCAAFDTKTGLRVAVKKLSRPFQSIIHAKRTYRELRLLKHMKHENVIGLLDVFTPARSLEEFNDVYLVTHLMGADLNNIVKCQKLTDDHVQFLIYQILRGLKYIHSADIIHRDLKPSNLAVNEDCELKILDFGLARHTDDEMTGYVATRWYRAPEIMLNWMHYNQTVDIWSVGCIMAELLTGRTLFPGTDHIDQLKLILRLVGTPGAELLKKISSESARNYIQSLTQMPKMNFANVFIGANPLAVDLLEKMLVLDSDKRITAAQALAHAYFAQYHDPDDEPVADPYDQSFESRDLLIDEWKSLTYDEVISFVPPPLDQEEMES

For the compound `C#Cc1cccc(Nc2nccc(Oc3ccc(NC(=O)Nc4cc(C(C)C)nn4-c4ccc(C)cc4)c4ccccc34)n2)c1` [Example 10, 1-(4-((2-((3-Ethynylphenyl)amino)pyrimidin-4-yl)oxy)naphthalen-1-yl)-3-(3-isopropyl-1-(p-tolyl)-1H-pyrazol-5-yl)urea], the negative-log IC50 (pIC50) against c-Src was 6.86; with PBMCs [1] it was 8.10; on Syk, 6.09.
Regarding `C#Cc1cc(Nc2nccc(Oc3ccc(NC(=O)Nc4cc(C(C)C)nn4-c4ccc(C)cc4)c4ccccc34)n2)cc(OC)c1` [Example 15, 1-(4-((2-((3-Ethynyl-5-methoxyphenyl)amino)pyrimidin-4-yl)oxy)naphthalen-1-yl)-3-(3-isopropyl-1-(p-tolyl)-1H-pyrazol-5-yl)urea], the values for the negative-log IC50 (pIC50) at c-Src, in the assay with PBMCs [1] and on Syk were less than 5.80, 8.21 and less than 5.80, respectively.
As to `COc1cc(Nc2nccc(Oc3ccc(NC(=O)Nc4cc(C(C)C)nn4-c4ccc(C)cc4)c4ccccc34)n2)cc(OCCN2CCOCC2)c1` [Example 17, 1-(3-Isopropyl-1-(P-tolyl)-1H-pyrazol-5-yl)-3-(4-((2-((3-methoxy-5-(2-morpholinoethoxy)-phenyl)amino)pyrimidin-4-yl)oxy)naphthalen-1-yl)urea], the pIC50 on c-Src was less than 6.42; in the assay with PBMCs [2] (setting [3]) it was 7.69; at p38 MAPKα, less than 6.55; with PBMCs [1], 8.96; on Syk, less than 6.27; on GSK3α, 5.57.
Take `Cc1ccc(-n2nc(C(C)C)cc2NC(=O)Nc2ccc(Oc3ccnc(Nc4cccc(OCCOCCOCCO)c4)n3)c3ccccc23)cc1` [Example 19, 1-(4-((2-((3-(2-(2-(2-Hydroxyethoxy)ethoxy)ethoxy)phenyl)amino)pyrimidin-4-yl)oxy)-naphthalen-1-yl)-3-(3-isopropyl-1-(p-tolyl)-1H-pyrazol-5-yl)urea]: the negative logarithm of the IC50 (pIC50) at c-Src was 8.30; with PBMCs [1] it was 8.92; on Syk, 7.70; on GSK3α it was 5.97.
Regarding `COc1cc(Nc2nccc(Oc3ccc(NC(=O)Nc4cc(C(C)C)nn4-c4ccc(C)cc4)c(Cl)c3Cl)n2)cc(S(=O)(=O)C2CC2)c1` [Example 23, 1-(2,3-Dichloro-4-((2-((3-(cyclopropylsulfonyl)-5-methoxyphenyl)amino)pyrimidin-4-yl)-oxy)phenyl)-3-(3-isopropyl-1-(p-tolyl)-1H-pyrazol-5-yl)urea], the negative-log IC50 (pIC50) was 7.28 at c-Src, 8.59 in the assay on PBMCs [1], 6.54 at Syk and 5.85 against GSK3α.
For `COCCOCCOCCOCCOc1cc(Nc2nccc(Oc3ccc(NC(=O)Nc4cc(C(C)C)nn4-c4ccc(C)cc4)c4ccccc34)n2)cc(OC)c1` [Example 29, 1-(4-((2-((3-(2,5,8,11-Tetraoxatridecan-13-yloxy)-5-methoxyphenyl)amino)pyrimidin-4-yl)oxy)naphthalen-1-yl)-3-(3-isopropyl-1-(p-tolyl)-1H-pyrazol-5-yl)urea], the negative-log IC50 (pIC50) against c-Src was 8.22; with PBMCs [2] (setting [4]) it was 8.18; in the assay on PBMCs [2] (setting [3]), 7.13; against p38 MAPKα it was 7.52; with PBMCs [1], 8.60; against Syk, 7.80. Also, the pIC50 against GSK3α is less than 5.00.
In the case of `COCCOCCOCCOCCOCCOc1cc(Nc2nccc(Oc3ccc(NC(=O)Nc4cc(C(C)C)nn4-c4ccc(C)cc4)c4ccccc34)n2)cc(OC)c1` [Example 30, 1-(4-((2-((3-(2,5,8,11,14-Pentaoxahexadecan-16-yloxy)-5-methoxyphenyl)amino)-pyrimidin-4-yl)oxy)naphthalen-1-yl)-3-(3-isopropyl-1-(p-tolyl)-1H-pyrazol-5-yl)urea], the pIC50 on c-Src was 8.40; in the assay on PBMCs [2] (setting [4]) it was 7.82; in the assay with PBMCs [2] (setting [3]) it was 7.56; at p38 MAPKα, 7.49; in the assay with PBMCs [1], 8.68; against Syk it was 7.92. On GSK3α, the pIC50 was 5.14.
`COCCOCCOCCOCCOCCOCCOCCOc1cc(Nc2nccc(Oc3ccc(NC(=O)Nc4cc(C(C)C)nn4-c4ccc(C)cc4)c4ccccc34)n2)cc(OC)c1` [Example 32, 1-(4-((2-((3-(2,5,8,11,14,17,20-Heptaoxadocosan-22-yloxy)-5-methoxyphenyl)amino)-pyrimidin-4-yl)oxy)naphthalen-1-yl)-3-(3-isopropyl-1-(p-tolyl)-1H-pyrazol-5-yl)urea]: the negative logarithm of the IC50 (pIC50) at c-Src was 8.52; on p38 MAPKα it was 7.96; in the assay on PBMCs [1], 8.85; at Syk, 8.15; on GSK3α, 5.33.
Take `COc1cc(Nc2nccc(Oc3ccc(NC(=O)Nc4cc(C(C)(C)C)nn4-c4ccc(C)cc4)c4ccccc34)n2)cc(SCCCN2CCOCC2)c1` [Example 42, 1-(3-(tert-Butyl)-1-(p-tolyl)-1H-pyrazol-5-yl)-3-(4-((2-((3-methoxy-5-((3-morpholinopropyl)-thio)phenyl)amino)pyrimidin-4-yl)oxy)naphthalen-1-yl)urea]: the negative logarithm of the IC50 (pIC50) was 7.55 on c-Src; 9.00 with PBMCs [2] (setting [4]); 7.23 in the assay on PBMCs [2] (setting [3]); 6.54 on p38 MAPKα; 8.44 in the assay with PBMCs [1]; 7.29 against Syk. The compound further gave a pIC50 at GSK3α of 5.71.
As to `COc1cc(Nc2nccc(Oc3ccc(NC(=O)Nc4cc(C(C)(C)C)nn4-c4ccc(C)cc4)c4ccccc34)n2)cc(OCCN2CCOCC2)c1` [Example 45, 1-(3-(tert-Butyl)-1-(P-tolyl)-1H-pyrazol-5-yl)-3-(4-((2-((3-methoxy-5-(2-morpholinoethoxy)-phenyl)amino)pyrimidin-4-yl)oxy)naphthalen-1-yl)urea], the pIC50 was 7.92 against c-Src; 8.66 in the assay with PBMCs [2] (setting [4]); 7.13 in the assay on PBMCs [2] (setting [3]); 6.84 against p38 MAPKα; 8.49 with PBMCs [1]; 7.82 against Syk. The compound further gave a pIC50 at GSK3α of 5.83.
On to `COc1cc(Nc2nccc(Oc3ccc(NC(=O)Nc4cc(C(C)(C)C)nn4-c4ccc(C)cc4)c4ccccc34)n2)cc(OCCOCCOCCN(C)C)c1` [Example 57, 1-(3-(tert-Butyl)-1-(p-tolyl)-1H-pyrazol-5-yl)-3-(4-((2-((3-(2-(2-(2-(dimethylamino)ethoxy)ethoxy)ethoxy)-5-methoxyphenyl)amino)pyrimidin-4-yl)oxy)naphthalen-1-yl)urea], for which the pIC50 is 8.15 on c-Src; 8.85 in the assay on PBMCs [2] (setting [4]); 7.84 with PBMCs [2] (setting [3]); 9.05 in the assay with PBMCs [1]; 8.10 at Syk; 5.71 against GSK3α.
Consider `COCCOCCOc1cc(Nc2nccc(Oc3ccc(NC(=O)Nc4cc(C(C)(C)C)nn4-c4ccc(C)cc4)c4ccccc34)n2)cc(OC)c1` [Example 60, 1-(3-(tert-Butyl)-1-(p-tolyl)-1H-pyrazol-5-yl)-3-(4-((2-((3-methoxy-5-(2-(2-methoxyethoxy)ethoxy)phenyl)amino)pyrimidin-4-yl)oxy)naphthalen-1-yl)urea], for which the pIC50 against c-Src is 7.77; in the assay with PBMCs [2] (setting [4]), 8.52; with PBMCs [2] (setting [3]) it was 7.14; with PBMCs [1], 8.66; against Syk, 7.52; on GSK3α it was less than 5.00.
